Values after ≈ are worked out from the molar mass of the structure shown.
Assays:
brine shrimp larvae = assay: in vivo; settings: for LD50 (brine shrimp): brine shrimp larvae, 96 well plates, 24 h incubation; for LC50 against brine shrimp larvae: 96 well plates assay
Method: (§1) According to the method described by Wanyoike, brine shrimp eggs (Ocean Star International, Inc., USA) were hatched in a large beaker containing natural sea water (South China Sea) and they were cultured at room temperature for 48 h. With the help of a light source, the larvae grouped together on one side of the vessel and were easily collected for the assay. […] Each test was processed in triplicate with approximate ten larvae. Brine shrimps were counted under a magnifying glass after 24 h of incubation and maintaining the 96 well plates under illumination. The controls were prepared in the same manner except that the test samples were omitted.

[1] = tested on: lung cancer (HvEvc) cell line; assay: antiproliferative MTT assay, HvEvc; assay type: cell-based; settings: MTT method, 72 h
Method: (§2) Antiproliferative activities of compounds were evaluated by the MTT method using mammary cancer (F10) and lung cancer (HvEvc) cell lines. In MTT assay, the cell suspensions (200 μL) at a density of 1 × 10^5 cells mL^−1 were plated in 96-well microtiter plates and incubated for 24 h at 37 °C in a humidified incubator at 5% CO2. The tested compound solution (2 μL in DMSO) at different concentrations was added to each well and further incubated for 72 h in the same condition. Then, the MTT solution (50 μL) was added to each well and incubated for 4 h. The old medium (150 μL) containing MTT was then gently replaced by DMSO. Absorbance was then determined on a Spectra Max Plus plate reader at 490 nm.

in vivo = settings: brine shrimp, in vivo, other: larvae exposed in sea water in 96 well plate, LC50 against brine shrimp larvae; 96 well plates assay
Method: as §1

[2] = tested on: mammary cancer (F10) cell line; assay: antiproliferative MTT assay, F10; assay type: cell-based; settings: MTT method, 72 h
Method: as §2

[3] = parameters: method as in PMID 10378778; settings: cited from earlier work
[4] = tested on: P-388 lymphocytic leukemia; parameters: method as in PMID 490172; settings: mice, 10 mg/Kg; cited from earlier work
Lewis lung carcinoma = tested on: Lewis lung carcinoma; parameters: method as in PMID 490172; settings: mice, 1.25 mg/Kg; cited from earlier work
[5] = tested on: P-388 lymphocytic leukemia; parameters: method as in doi:10.1021/jo00150a028; settings: in vitro; cited from earlier work

Molecule	LD50 (brine shrimp) (brine shrimp larvae)	LC50 against brine shrimp larvae (brine shrimp larvae)	also measured
COc1cc2oc(=O)ccc2cc1C=O [Compound 4, 6-formyl-7-methoxycoumarin]	>500 µg/mL		
C=C(C)C(O)C(OC)c1c(OC)ccc2ccc(=O)oc12 (stereo not shown) [Compound 11, murracarpin]	158.5 µg/mL	< 500 µM	IC50 (HvEvc) [1]: 124.3 µg/mL (≈ 428 µM)
C=C(C)C(OC1OC(CO)C(O)C(O)C1O)C(O)c1c(OC)ccc2ccc(=O)oc12 (stereo not drawn) [Compound 2, 7-Methoxy-8-(1-hydroxy-2-O-β-glucopyranosyl-3-methyl-4-butene-1-yl)coumarin]	29.1 µg/mL		LC50 at 24 h (in vivo): < 500 µg/mL; IC50 [2]: 23.6 µg/mL (≈ 53.8 µM); IC50 [1]: 68.5 µg/mL (≈ 156 µM)
C=C(C)[C@H](O)[C@@H](O)c1c(OC)ccc2ccc(=O)oc12 [minumicrolin]			anti-tumor promoting activity [3]: valuable anti-tumor promoting agents
microfalcatin isovalerate [Compound 14]			IC50 (F10) [2]: 112.0 µg/mL
murralonginol [Compound 8]	>500 µg/mL		
COc1cc2oc(=O)ccc2cc1[C@@H]1OC(=O)[C@@]2(C)O[C@@H]12 [micromelin]			T/C [4]: 149%; T/C (Lewis lung carcinoma): 228%
C=C(C)[C@@H](O)[C@@H](O)c1c(OC)ccc2ccc(=O)oc12 [murrangatin]			anti-tumor promoting activity [3]: valuable anti-tumor promoting agents
microminutinin [Compound 12]	>500 µg/mL		
(E)-osthenone [Compound 9]	>500 µg/mL		
methoxymicrominutinin [Compound 13]	>500 µg/mL		
arscotin [Compound 7]	118.5 µg/mL	< 500 µM	
COc1ccc2ccc(=O)oc2c1/C=C/C(CO)COC(=O)CC(C)C (stereo not shown) [Compound 1, 7-Methoxy-8-(2-hydroxmethyl-1-O-isovaleryl-4-butenyl)coumarin]	6.8 µg/mL	< 10 µM	LC50 at 24 h (in vivo): 6.8 µg/mL (≈ 18.9 µM); IC50 [1]: 35.7 µg/mL (≈ 99.1 µM)
COc1ccc2ccc(=O)oc2c1/C=C/C(C)(C)O [Compound 6, murraol]	199.3 µg/mL	< 500 µM	IC50 (HvEvc) [1]: 172.5 µg/mL (≈ 663 µM)
microminutin [Compound 3]	107.3 µg/mL	< 500 µM	IC50 (F10) [2]: 82.9 µg/mL; ED50 [5]: 3.7 µg/mL
C=C(C)C(CO)c1c(OC)ccc2ccc(=O)oc12 (stereo not shown) [Compound 10, isomurralonginol]	50.6 µg/mL	< 500 µM	IC50 (HvEvc) [1]: 72.6 µg/mL (≈ 279 µM)
COc1ccc2ccc(=O)oc2c1C(C=O)=C(C)C [Compound 5, murralongin]	>500 µg/mL		
